Measurements: PMC7918738, “Microtubule Destabilizing Sulfonamides as an Alternative to Taxane-Based Chemotherapy” (International Journal of Molecular Sciences, 2021)
In brackets after ≈: the same amount, converted by molar mass. Like-named read-outs stand apart in the source and are kept apart here.

Key:
[1] = system: HT-29 (colon adenocarcinoma); experiment: Antiproliferative activity against CA-4-resistant HT-29 with or without verapamil (sensitivity to MDR pumps, XTT); format: cell-based, human; settings: Homo sapiens, read-out: Antiproliferative Activity IC50 HT-29
Description: Detecting changes in drug potency when inhibiting MDR-mediated efflux reflect that these transporters reduce the intracellular drug concentration. HT-29 has been reported to express moderate levels of MDR1, accounting for a resistant phenotype. A comparison of the antiproliferative IC50 values of each MDS in the presence or absence of verapamil provides an estimate of the susceptibility of each compound to efflux pumps.
MCF7 (human breast carcinoma), SKOV-3 (human ovarian carcinoma), OVCAR-3 (human ovarian carcinoma), OVCAR-8 (human ovarian carcinoma), and HeLa (human cervical carcinoma) cell lines were cultured in Dulbecco’s Modified Eagle’s Medium (DMEM) (Gibco, Thermo Fischer Scientific) containing 10% (v/v) heat-inactivated fetal bovine serum (HIFBS) (Lonza-Cambrex, Karlskoga, Sweden), 2 mM L-glutamine (Lonza-Cambrex, Karlskoga, Sweden), 100 μg/mL streptomycin, and 100 IU/mL penicillin (Lonza-Cambrex) at 37 °C in humidified 95% air and 5% CO2. HT-29 (human colon carcinoma), IGROV-1 (human ovarian carcinoma), and A2780 (human ovarian carcinoma) cell lines were cultured in RPMI 1640 medium (Gibco, Thermo Fischer Scientific) supplemented with 10% HIFBS, 100 μg/mL streptomycin, and 100 IU/mL penicillin at 37 °C in humidified 95% air and 5% CO2 atmosphere. The presence of mycoplasma was routinely checked with MycoAlert kit (Lonza-Cambrex) and only mycoplasma-free cells were used in the experiments. Ovarian tumor cell lines were originally acquired from Dr Atanasio Pandiella from Centro de Investigación del Cáncer (CIC), Salamanca, Spain. HeLa, HT-29 and MCF7 tumor cell lines were provided by Dr Faustino Mollinedo from Centro de Investigaciones Biológicas Margarita Salas, Madrid, Spain.
MCF7, HeLa, and HT-29 cell proliferation, when treated with the corresponding compounds, were determined using the XTT (sodium 3’-[1(phenylaminocarbonyl)-3,4-tetrazolium]-bis(4-methoxy-6-nitro)-benzenesulfonic acid hydrate) cell proliferation kit (Roche Molecular Biochemicals, Mannheim, Germany). A freshly prepared mixture of XTT labeling reagent with 0.02% (v/v) PMS (N-methyl-dibenzopyrazine methyl sulfate) electron coupling reagent was added to cells (50 µL/well in 96-well plates, total volume of 160 µL/well). Cells were incubated under standard culture conditions for 4 h (MCF7 and HeLa) or 6 h (HT-29). The absorbance of the formazan product generated was measured at 450 nm using a multi-well plate reader. SKOV-3, OVCAR-3, OVCAR-8, IGROV-1, A-2780 cell proliferation, when treated with the corresponding compound, were determined using MTT (3-(4,5-dimethylthiazol-2-yl)-2,5-diphenyl-2H-tetrazolium bromide) (Sigma-Aldrich, St. Louis, MO, USA). MTT in Phosphate Buffer Saline (PBS) (5 mg/ml) was added to cells (110 µL/well in 24-well plates, total volume of 1110 µL/well). After 1 hour of incubation, the medium was aspirated, and formazan violet crystals were dissolved in dimethyl sulfoxide (DMSO) (500 µL/well). Absorbance was measured at 570 nm in a plate reader (Ultra Evolution, Tecan, Männedorf, Suiza). To determine cell viability, cells in exponential growth phase were seeded (100 µL/well in 96-well plates and 1000 µL/well in 24-well plates) with appropriate cell line concentration (1.5·10^4 cells/mL for MCF7 and HeLa, 3·10^4 cells/mL for HT-29, and 1·10^4 cells/mL for SKOV-3, OVCAR-3, OVCAR-8, IGROV-1, and A-2780) in complete RPMI 1640 or DMEM medium at 37°C and 5% CO2 atmosphere. After 24 h incubation, to allow cells to attach to the plates, all compounds were added at 1 µM concentration and the effect on the proliferation was evaluated 72 h post-treatment. […] Non-linear curves fitting the experimental data were carried out for each compound. Compounds were dissolved in DMSO and the final solvent concentrations never exceeded 0.5% (v/v). The control wells included […] with 0.5% (v/v) DMSO and the positive control. 10 µM verapamil was included as a control for the HT-29 cell line.

[2] = Aqueous solubility, saturation shake-flask method, UV absorbance; settings: phosphate buffer, pH 7, aqueous buffer, thermodynamic from solid
Description: UV absorbance at three maximum absorbance wavelengths of selected compounds was measured after 48 h shaking and subsequent microfiltration.
The aqueous solubility of the sulfonamides was determined using an approach based on the saturation shake-flask method. Tested compounds (1–2 mg) were stirred in pH 7.0 phosphate buffer (300 µL) for 48 h at room temperature. The resulting suspension was filtered over a 45 µm filter to discard insoluble residues, and the concentration in the supernatant was measured by UV absorbance. To determine the concentration, a scan between 270 and 400 nm was performed in a Helios-α UV-320 Spectrophotometer (Thermo-Spectronic, Thermo Fischer Scientific, Waltham, MA, USA) for each tested compound. Then, three maximum wavelengths of absorbance per compound were selected from the previous scan and calibration curves were performed at these three wavelengths. Solubility results are given as the average of the three measurements.

[3] = HT-29, 72 h, XTT, without verapamil

SMILES	IC50 [1, 3]	solubility at 48 h [2]	IC50 ([1]; HT-29, 72 h)
COc1ccc(/C=C\c2cc(OC)c(OC)c(OC)c2)cc1O [Combretastatin A-4, reference compound]	305 nM	–	–
COc1ccc(S(=O)(=O)N(c2cc(OC)c(OC)c(OC)c2)S(=O)(=O)c2ccc(OC)cc2)cc1 [Compound 1b]	> 1000 nM	108 µg/mL (≈ 206 µM)	–
COc1ccc(S(=O)(=O)N(CCBr)c2cc(OC)c(OC)c(OC)c2)cc1 [Compound 4]	–	–	503 nM
COc1ccc(S(=O)(=O)N(CC#N)c2cc(OC)c(OC)c(OC)c2)cc1 [Compound 6]	230 nM	33 µg/mL (≈ 84.1 µM)	–
COc1ccc(S(=O)(=O)N(Cc2ccccc2)c2cc(OC)c(OC)c(OC)c2)cc1 [Compound 9]	> 1000 nM	–	–
COc1ccc(S(=O)(=O)N(C(=O)OCc2ccccc2)c2cc(OC)c(OC)c(OC)c2)cc1 [Compound 10]	> 1000 nM	–	–
COc1ccc(S(=O)(=O)Nc2cc(OC)c(OC)c(OC)c2[N+](=O)[O-])cc1 [Compound 11]	> 1000 nM	88 µg/mL (≈ 221 µM)	–
COc1ccc(S(=O)(=O)Nc2cc(OC)c(OC)c(OC)c2N)cc1 [Compound 12]	> 1000 nM	158 µg/mL (≈ 429 µM)	–
COc1ccc(S(=O)(=O)N(C)c2cc(OC)c(OC)c(OC)c2N)cc1 [Compound 13]	> 1000 nM	–	–
COc1ccc(S(=O)(=O)Nc2cc(OC)c(OC)c(OC)c2NCN(c2cc(OC)c(OC)c(OC)c2N)S(=O)(=O)c2ccc(OC)cc2)cc1 [Compound 14]	> 1000 nM	–	–
COc1ccc(S(=O)(=O)Nc2cc(OC)c(OC)c(OC)c2NC(C)=O)cc1 [Compound 15]	> 1000 nM	230 µg/mL (≈ 560 µM)	–
COc1ccc(S(=O)(=O)Nc2cc(OC)c(OC)c(OC)c2NC=O)cc1 [Compound 17]	> 1000 nM	–	–
COc1ccc(S(=O)(=O)Nc2cc(OC)c(OC)c(OC)c2N(C)C)cc1 [Compound 18]	> 1000 nM	–	–
COc1ccc(S(=O)(=O)N(C)c2cc(OC)c(OC)c(OC)c2N(C)C)cc1 [Compound 19]	> 1000 nM	–	–
COc1ccc(S(=O)(=O)Nc2cc(OC)c(OC)c(OC)c2Br)cc1 [Compound 20]	> 1000 nM	87 µg/mL (≈ 201 µM)	–
COc1ccc(S(=O)(=O)Nc2cc(OC)c(OC)c(OC)c2NC(=O)CNC(=O)OC(C)(C)C)cc1 [Compound 21]	> 1000 nM	357 µg/mL (≈ 679 µM)	–
COc1ccc(S(=O)(=O)n2nnc3c(OC)c(OC)c(OC)cc32)cc1 [Compound 23]	> 1000 nM	41 µg/mL (≈ 108 µM)	–
COc1ccc(S(=O)(=O)n2cnc3c(OC)c(OC)c(OC)cc32)cc1 [Compound 24]	> 1000 nM	–	–
